Test results as given in PMC8956058, “Cembranolides and Related Constituents from the Soft Coral Sarcophyton cinereum” (Molecules, 2022).
Read-outs that look alike come from different tables or passages of the source.

Legend:
Type in all cases: cell-based
[1] = test system: P388 cells (mouse lymphoma); assay: Alamar Blue cytotoxicity / anti-proliferation assay, P388; conditions: triplicate, read-out: Anti-proliferation activities (IC50) P388
Method: (§1) The assay was implemented according to the published protocols. In brief, the Alamar Blue assay was performed for compounds 2–19 by treating them with P388, DLD-1, HuCC-T1, and CCD966SK cancer cells, which were commercially available from the American Type Culture Collection (ATCC). The test was performed in triplicate, and doxorubicin was used as a positive control.

[2] = test system: DLD-1 cells (human colorectal adenocarcinoma); assay: Alamar Blue cytotoxicity / anti-proliferation assay, DLD-1; conditions: triplicate, read-out: Anti-proliferation activities (IC50) DLD-1
Method: as §1

[3] = test system: HuCCT-1 cells (human intrahepatic cholangiocarcinoma); assay: Alamar Blue cytotoxicity / anti-proliferation assay, HuCCT-1; conditions: triplicate, read-out: Anti-proliferation activities (IC50) HuCCT-1
Method: as §1

[4] = test system: CCD966SK cells (human skin fibroblast); assay: Alamar Blue cytotoxicity / anti-proliferation assay, CCD966SK; conditions: triplicate, read-out: Anti-proliferation activities (IC50) CCD966SK
Method: as §1

[5] = Mus musculus, P388, P388 mouse lymphoma
[6] = Homo sapiens, DLD-1, DLD-1 human colorectal adenocarcinoma
[7] = Homo sapiens, HuCCT-1, HuCCT-1 human intrahepatic cholangiocarcinoma
[8] = DLD-1 human colorectal adenocarcinoma
[9] = HuCCT-1 human intrahepatic cholangiocarcinoma

Compound	IC50 [1, 5] [µM]	IC50 [2, 6] [µM]	IC50 [3, 7] [µM]	IC50 ([4]; Homo sapiens, Skin fibroblast) [µM]	IC50 ([1]; P388 mouse lymphoma) [µM]	IC50 [2, 8] [µM]	IC50 [3, 9] [µM]	IC50 [4] [µM]
CC(C)C1(O)C=CC(C)(O)CCC(O)C2(C)CCC=C(CC1)C(=O)O2 (stereo not drawn) [Compound 2, Cinerenolide B]	> 30	> 30	> 30	> 30				
CC(C)C1(O)C=CC(C)(O)CCC(O)C2(C)CCC=C(CC1)C(=O)O2 (stereo not drawn) [Compound 3, Cinerenolide C]					> 30	> 30	> 30	> 30
C=C1CC[C@H]2O[C@]2(C)CCC2=C(C)CO[C@H]2/C=C(\C)CC[C@@H]1OC(C)=O [Compound 4, sarcophytonoxide E]	> 30	> 30	> 30	> 30				
CC1=C2CC[C@@]3(C)O[C@@H]3CC[C@@](C)(OO)/C=C/C/C(C)=C/[C@@H]2OC1=O [Compound 5, sarcomililatin A]	15.2 ± 3.2	> 30	> 30	> 30				
C=C1CC[C@H]2O[C@]2(C)CCC2=C(C)C(=O)O[C@H]2/C=C(\C)CC[C@H]1OO [Compound 6, sarcomililatin B]	11.8 ± 4.6	> 30	> 30	> 30				
CC1=CCCC2(C)OC2CCC(C)=CC=C(C(C)(C)O)CC1 (stereo not drawn) [Compound 7, 2-[(E,E,E)-7′,8′-epoxy-4′,8′,12′-trimethylcyclotetradeca-1′,3′,11′-trienyl]propan-2-ol]	> 30	> 30	> 30	> 30				
C/C1=C\[C@H](O)CC2=C[C@@H](OC2=O)[C@H](C(C)C)CC/C(C)=C/CC1 [Compound 8, sarcophytonolide F]	> 30	> 30	> 30	> 30				
CC1=C2CC[C@@]3(C)O[C@@H]3CC/C(C)=C/CC[C@@](C)(O)/C=C/2OC1=O [Compound 9, cherbonolide L]	> 30	> 30	> 30	> 30				
CC1=C2CC[C@@]3(C)O[C@@H]3CC/C(C)=C/CC/C(C)=C/[C@@H]2OC1=O [Compound 10, (+)-(2S)-isosarcophine]	> 30	> 30	> 30	> 30				
CC1=C2CC[C@@]3(C)O[C@@H]3CC/C(C)=C/CC/C(C)=C/[C@H]2OC1=O [Compound 11, (–)-(2R)-isosarcophine]	> 30	> 30	> 30	> 30				
CC(=O)O[C@H]1/C=C(\C)CC[C@H]2O[C@]2(C)CCC2=C(C)CO[C@H]2/C=C(\C)C1 [Compound 12, sarcophytonoxide A]	> 30	> 30	> 30	> 30				
CC(C)/C1=C/[C@@H](O)[C@]2(C)O[C@@H]2C[C@@H](O)[C@@]2(C)CCC=C(CC1)C(=O)O2 [Compound 13, sartrolide C]	> 30	> 30	> 30	> 30				
COC(=O)/C1=C\C=C(\C(C)C)CCC2=CCC[C@](C)(OC2=O)C(=O)CC1 [Compound 14, ketoemblide]	> 30	> 30	> 30	> 30				
CC(=O)OC1CC(C)=CCCC(C)=CC(=O)CC23C(=O)OC(C1C(C)C)C2CC(C)=C1CCC2=CCCC(C)(OC2=O)C(O)CCC(C)=CC13 (stereo not drawn) [Compound 16, glaucumolide A]				21.3 ± 5.8	16.7 ± 5.8	> 30	19.1 ± 6.4	
CC(=O)OC1CC(C)=CCCC(C)=CC(=O)CC23C(=O)OC(C1C(C)C)C2CC(C)=C1CCC2=CCCC(C)(OC2=O)C(O)CCC(C)=CC13 (stereo not drawn) [Compound 17, glaucumolide B]					22.8 ± 9.7	> 30	> 30	26.1 ± 10.3
CC(=O)OC1CC(C)=CCCC(C)=CC(=O)CC23C(=O)OC(C1C(C)C)C2CC(C)=C1CCC2=CCCC(C)(OC2=O)C(O)CCC(C)=CC13 (stereo not drawn) [Compound 18, bistrochelide A]					10.6 ± 1.9	9.9 ± 1	2 ± 0.1	18.8 ± 6.9
COc1cccc2c1C(=O)c1c(O)c3c(c(O)c1C2=O)C[C@@](O)(C(=O)CO)C[C@@H]3O[C@H]1C[C@H](N)[C@H](O)[C@H](C)O1 [Doxorubicin, doxorubicin, reference compound]	0.69 ± 0.01	4.1 ± 0.7	1.9 ± 0.1	2.9 ± 0.4				
isosarcophytonolide D [Compound 15]					> 30	> 30	> 30	27.6 ± 7.8
